{
  "source": "ChEMBL document CHEMBL4004848",
  "about": "“Dregamine and tabernaemontanine derivatives as ABCB1 modulators on resistant cancer cells” (Eur J Med Chem, 2017)",
  "key": {"L5178Y": {"tested_on": "L5178Y", "experiment": "Cytotoxicity against mouse L5178Y cells after 24 hrs by MTT assay", "type": "functional, cell-based"}, "NIH3T3": {"tested_on": "NIH3T3", "experiment": "Cytotoxicity against mouse NIH/3T3 cells after 24 hrs by MTT assay", "type": "cell-based", "conditions": "NIH3T3, 24 h"}, "[1]": {"experiment": "Selectivity index, ratio of IC50 for mouse L5178Y cells to IC50 for human ABCB1 expressed in L5178Y cells"}, "[2]": {"target": "T1, ATP-dependent translocase ABCB1 (Homo sapiens, UniProt P08183)", "T1 sequence (P08183 whole entry)": "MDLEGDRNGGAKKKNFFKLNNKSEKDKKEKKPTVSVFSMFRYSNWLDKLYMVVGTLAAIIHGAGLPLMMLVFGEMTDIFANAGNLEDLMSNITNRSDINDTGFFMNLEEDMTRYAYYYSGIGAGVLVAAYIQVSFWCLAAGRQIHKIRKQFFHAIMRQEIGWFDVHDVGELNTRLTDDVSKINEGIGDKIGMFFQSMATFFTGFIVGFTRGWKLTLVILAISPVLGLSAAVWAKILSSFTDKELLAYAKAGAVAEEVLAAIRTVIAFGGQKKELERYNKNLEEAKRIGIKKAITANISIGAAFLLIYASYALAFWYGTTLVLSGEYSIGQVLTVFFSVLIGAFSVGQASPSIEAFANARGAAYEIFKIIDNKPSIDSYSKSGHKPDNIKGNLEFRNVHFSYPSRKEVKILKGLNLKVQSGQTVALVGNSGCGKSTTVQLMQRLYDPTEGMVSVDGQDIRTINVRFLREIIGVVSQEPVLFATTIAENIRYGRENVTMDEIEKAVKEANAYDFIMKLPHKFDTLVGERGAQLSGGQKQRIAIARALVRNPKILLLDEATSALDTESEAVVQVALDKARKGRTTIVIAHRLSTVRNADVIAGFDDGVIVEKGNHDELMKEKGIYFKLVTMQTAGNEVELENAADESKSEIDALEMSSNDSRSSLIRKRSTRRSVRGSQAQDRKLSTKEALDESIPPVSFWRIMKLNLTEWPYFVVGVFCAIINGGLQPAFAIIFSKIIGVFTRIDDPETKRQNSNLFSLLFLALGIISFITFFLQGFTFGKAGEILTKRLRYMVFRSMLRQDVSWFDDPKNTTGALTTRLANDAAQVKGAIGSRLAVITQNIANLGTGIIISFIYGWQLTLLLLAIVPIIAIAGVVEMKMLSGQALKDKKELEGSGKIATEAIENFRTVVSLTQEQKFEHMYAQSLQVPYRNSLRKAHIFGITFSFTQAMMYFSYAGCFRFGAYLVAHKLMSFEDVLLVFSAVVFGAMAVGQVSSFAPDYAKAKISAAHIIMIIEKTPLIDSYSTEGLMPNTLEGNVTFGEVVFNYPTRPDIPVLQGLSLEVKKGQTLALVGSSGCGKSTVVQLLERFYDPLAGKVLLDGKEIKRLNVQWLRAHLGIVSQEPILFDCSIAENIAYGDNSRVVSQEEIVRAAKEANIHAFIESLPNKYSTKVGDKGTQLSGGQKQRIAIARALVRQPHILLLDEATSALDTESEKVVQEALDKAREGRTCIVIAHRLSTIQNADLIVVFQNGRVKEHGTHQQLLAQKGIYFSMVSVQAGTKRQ", "experiment": "Inhibition of human ABCB1 expressed in mouse L5178Y cells assessed as increase in rhodamine-123 accumulation by measuring forward scatter count of cells at 2 uM pretreated for 10 mins followed by rhodamine-123 addition after 20 mins by flow cytometry (reference value: 2206)", "type": "cell-based"}, "[3]": {"target": "T1, ATP-dependent translocase ABCB1", "experiment": "Inhibition of human ABCB1 expressed in mouse L5178Y cells assessed as increase in rhodamine-123 accumulation by measuring forward scatter count of cells at 20 uM pretreated for 10 mins followed by rhodamine-123 addition after 20 mins by flow cytometry (reference value: 2206)", "type": "cell-based"}, "[4]": {"target": "T1, ATP-dependent translocase ABCB1", "experiment": "Inhibition of human ABCB1 expressed in mouse L5178Y cells assessed as increase in rhodamine-123 accumulation by measuring side scatter count of cells at 2 uM pretreated for 10 mins followed by rhodamine-123 addition after 20 mins by flow cytometry (reference value: 903)", "type": "cell-based"}, "[5]": {"target": "T1, ATP-dependent translocase ABCB1", "experiment": "Inhibition of human ABCB1 expressed in mouse L5178Y cells assessed as increase in rhodamine-123 accumulation by measuring side scatter count of cells at 20 uM pretreated for 10 mins followed by rhodamine-123 addition after 20 mins by flow cytometry (reference value: 903)", "type": "cell-based"}, "[6]": {"target": "T1, ATP-dependent translocase ABCB1", "experiment": "Inhibition of human ABCB1 expressed in mouse L5178Y cells assessed as fluorescence activity ratio at 2 uM pretreated for 10 mins followed by rhodamine-123 addition after 20 mins by flow cytometry", "type": "cell-based"}, "[7]": {"target": "T1, ATP-dependent translocase ABCB1", "experiment": "Inhibition of human ABCB1 expressed in mouse L5178Y cells assessed as fluorescence activity ratio at 20 uM pretreated for 10 mins followed by rhodamine-123 addition after 20 mins by flow cytometry", "type": "cell-based"}, "[8]": {"target": "T1, ATP-dependent translocase ABCB1", "experiment": "Inhibition of human ABCB1 expressed in mouse L5178Y cells pretreated for 10 mins followed by rhodamine-123 addition after 20 mins by flow cytometry", "type": "cell-based"}, "[9]": {"target": "T1, ATP-dependent translocase ABCB1", "experiment": "Inhibition of human ABCB1 expressed in mouse L5178Y cells assessed as potentiation of doxorubicin-induced cytotoxicity by measuring combination index at 4:25 doxorubicin to compound ratio after 48 hrs by MTT assay", "type": "cell-based"}, "[10]": {"experiment": "Selectivity index, ratio of IC50 for mouse NIH/3T3 cells to IC50 for mouse L5178Y cells", "type": "functional"}, "[11]": {"target": "T1, ATP-dependent translocase ABCB1", "experiment": "Inhibition of human ABCB1 expressed in mouse L5178Y cells assessed as potentiation of doxorubicin-induced cytotoxicity by measuring combination index at 1:25 doxorubicin to compound ratio after 48 hrs by MTT assay", "type": "cell-based"}, "[12]": {"target": "T1, ATP-dependent translocase ABCB1", "experiment": "Inhibition of human ABCB1 expressed in mouse L5178Y cells assessed as potentiation of doxorubicin-induced cytotoxicity by measuring combination index at 2:5 doxorubicin to compound ratio after 48 hrs by MTT assay", "type": "cell-based"}, "[13]": {"target": "T1, ATP-dependent translocase ABCB1", "experiment": "Inhibition of human ABCB1 expressed in mouse L5178Y cells assessed as potentiation of doxorubicin-induced cytotoxicity by measuring combination index at 1:5 doxorubicin to compound ratio after 48 hrs by MTT assay", "type": "cell-based"}},
  "data": [
    {"compound": "CC[C@H]1CN(C)[C@H]2Cc3c([nH]c4ccccc34)/C(=N/Nc3ccccc3)C[C@H]1[C@@H]2C(=O)OC", "values": [
      {"measurement": "IC50", "setting": "L5178Y", "value": 44.2, "unit": "µM"},
      {"measurement": "IC50", "setting": "NIH3T3", "value": "> 100", "unit": "µM"},
      {"measurement": "Ratio IC50", "setting": "[1]", "value": 0.84},
      {"measurement": "Activity", "setting": "[2]", "value": 2183},
      {"measurement": "Activity", "setting": "[3]", "value": 2158},
      {"measurement": "Activity", "setting": "[4]", "value": 1046},
      {"measurement": "Activity", "setting": "[5]", "value": 1071},
      {"measurement": "Ratio", "setting": "[6]", "value": 8.84},
      {"measurement": "Ratio", "setting": "[7]", "value": 60.89},
      {"measurement": "inhibition (INH)", "setting": "[8]", "value": "Dose-dependent effect"},
      {"measurement": "CI", "setting": "[9]", "value": 0.34}
    ]},
    {"compound": "CC[C@H]1CN(C)[C@H]2Cc3c(n(Cc4ccccc4)c4ccccc34)C(=O)C[C@H]1[C@@H]2C(=O)OC", "values": [
      {"measurement": "IC50", "setting": "L5178Y", "value": 33.3, "unit": "µM"},
      {"measurement": "IC50", "setting": "NIH3T3", "value": 56.1, "unit": "µM"},
      {"measurement": "Ratio IC50", "setting": "[1]", "value": 0.87},
      {"measurement": "Ratio IC50", "setting": "[10]", "value": 1.68},
      {"measurement": "Activity", "setting": "[2]", "value": 2417},
      {"measurement": "Activity", "setting": "[3]", "value": 2449},
      {"measurement": "Activity", "setting": "[4]", "value": 1217},
      {"measurement": "Activity", "setting": "[5]", "value": 1193},
      {"measurement": "Ratio", "setting": "[6]", "value": 4.82},
      {"measurement": "Ratio", "setting": "[7]", "value": 55.74},
      {"measurement": "inhibition (INH)", "setting": "[8]", "value": "Dose-dependent effect"},
      {"measurement": "CI", "setting": "[11]", "value": 0.23}
    ]},
    {"compound": "CC[C@H]1CN(C)[C@H]2Cc3c(n(C)c4ccccc34)C(=O)C[C@H]1[C@@H]2C(=O)OC", "values": [
      {"measurement": "IC50", "setting": "L5178Y", "value": 40.4, "unit": "µM"},
      {"measurement": "IC50", "setting": "NIH3T3", "value": "> 100", "unit": "µM"},
      {"measurement": "Ratio IC50", "setting": "[1]", "value": 0.45},
      {"measurement": "Activity", "setting": "[2]", "value": 2435},
      {"measurement": "Activity", "setting": "[3]", "value": 2428},
      {"measurement": "Activity", "setting": "[4]", "value": 1214},
      {"measurement": "Activity", "setting": "[5]", "value": 1197},
      {"measurement": "Ratio", "setting": "[6]", "value": 1.81},
      {"measurement": "Ratio", "setting": "[7]", "value": 46.7},
      {"measurement": "inhibition (INH)", "setting": "[8]", "value": "Dose-dependent effect"},
      {"measurement": "CI", "setting": "[12]", "value": 0.24}
    ]},
    {"compound": "CC[C@H]1CN(C)[C@H]2Cc3c([nH]c4ccccc34)/C(=N/NC(=O)OCc3ccc(OC)cc3)C[C@H]1[C@@H]2C(=O)OC", "values": [
      {"measurement": "IC50", "setting": "L5178Y", "value": 34.3, "unit": "µM"},
      {"measurement": "IC50", "setting": "NIH3T3", "value": "> 100", "unit": "µM"},
      {"measurement": "Ratio IC50", "setting": "[1]", "value": 0.65},
      {"measurement": "Activity", "setting": "[2]", "value": 2262},
      {"measurement": "Activity", "setting": "[3]", "value": 2278},
      {"measurement": "Activity", "setting": "[4]", "value": 784},
      {"measurement": "Activity", "setting": "[5]", "value": 746},
      {"measurement": "Ratio", "setting": "[6]", "value": 31.88},
      {"measurement": "Ratio", "setting": "[7]", "value": 72.88},
      {"measurement": "inhibition (INH)", "setting": "[8]", "value": "Dose-dependent effect"},
      {"measurement": "CI", "setting": "[11]", "value": 0.16}
    ]},
    {"compound": "CC[C@H]1CN(C)[C@H]2Cc3c([nH]c4ccccc34)C(=S)C[C@H]1[C@@H]2C(=O)OC", "values": [
      {"measurement": "IC50", "setting": "L5178Y", "value": 54.5, "unit": "µM"},
      {"measurement": "IC50", "setting": "NIH3T3", "value": "> 100", "unit": "µM"},
      {"measurement": "Ratio IC50", "setting": "[1]", "value": 0.7},
      {"measurement": "Activity", "setting": "[2]", "value": 2242},
      {"measurement": "Activity", "setting": "[3]", "value": 2242},
      {"measurement": "Activity", "setting": "[4]", "value": 1120},
      {"measurement": "Activity", "setting": "[5]", "value": 1226},
      {"measurement": "Ratio", "setting": "[6]", "value": 2.99},
      {"measurement": "Ratio", "setting": "[7]", "value": 51.15},
      {"measurement": "inhibition (INH)", "setting": "[8]", "value": "Dose-dependent effect"},
      {"measurement": "CI", "setting": "[13]", "value": 0.22}
    ]},
    {"compound": "CC[C@@H]1CN(C)[C@H]2Cc3c([nH]c4ccccc34)[C@@H](O)C[C@H]1[C@@H]2C(=O)OC", "values": [
      {"measurement": "IC50", "setting": "L5178Y", "value": 55.6, "unit": "µM"},
      {"measurement": "IC50", "setting": "NIH3T3", "value": "> 100", "unit": "µM"},
      {"measurement": "Ratio IC50", "setting": "[1]", "value": 0.66},
      {"measurement": "Activity", "setting": "[2]", "value": 2251},
      {"measurement": "Activity", "setting": "[3]", "value": 2083},
      {"measurement": "Activity", "setting": "[4]", "value": 793},
      {"measurement": "Activity", "setting": "[5]", "value": 788},
      {"measurement": "Ratio", "setting": "[6]", "value": 0.88},
      {"measurement": "Ratio", "setting": "[7]", "value": 1.36},
      {"measurement": "inhibition (INH)", "setting": "[8]", "value": "Dose-dependent effect"},
      {"measurement": "CI", "setting": "[12]", "value": 0.4}
    ]},
    {"compound": "CC[C@H]1CN(C)[C@H]2Cc3c([nH]c4ccccc34)/C(=N/NC(=S)NCc3cccnc3)C[C@H]1[C@@H]2C(=O)OC", "values": [
      {"measurement": "IC50", "setting": "L5178Y", "value": 20.8, "unit": "µM"},
      {"measurement": "IC50", "setting": "NIH3T3", "value": 50.9, "unit": "µM"},
      {"measurement": "Ratio IC50", "setting": "[1]", "value": 0.46},
      {"measurement": "Ratio IC50", "setting": "[10]", "value": 2.45},
      {"measurement": "Activity", "setting": "[2]", "value": 2244},
      {"measurement": "Activity", "setting": "[3]", "value": 2301},
      {"measurement": "Activity", "setting": "[4]", "value": 808},
      {"measurement": "Activity", "setting": "[5]", "value": 805},
      {"measurement": "Ratio", "setting": "[6]", "value": 1.27},
      {"measurement": "Ratio", "setting": "[7]", "value": 30.98},
      {"measurement": "inhibition (INH)", "setting": "[8]", "value": "Dose-dependent effect"},
      {"measurement": "CI", "setting": "[9]", "value": 0.6}
    ]}
  ]
}
